From patent US10934298B2, “Substituted pyrazolo[1,5-a]pyrimidines for the treatment of medical disorders” (BIAL—BioTech Investments, Inc., priority 2016, dated 2021)

Molecular target: T1, glucocerebrosidase (Gcase) (Homo sapiens, UniProt P04062)
T1 construct: micellar solution containing 10 nM GCase and 100 nM saposin C
T1 sequence (P04062 40-536): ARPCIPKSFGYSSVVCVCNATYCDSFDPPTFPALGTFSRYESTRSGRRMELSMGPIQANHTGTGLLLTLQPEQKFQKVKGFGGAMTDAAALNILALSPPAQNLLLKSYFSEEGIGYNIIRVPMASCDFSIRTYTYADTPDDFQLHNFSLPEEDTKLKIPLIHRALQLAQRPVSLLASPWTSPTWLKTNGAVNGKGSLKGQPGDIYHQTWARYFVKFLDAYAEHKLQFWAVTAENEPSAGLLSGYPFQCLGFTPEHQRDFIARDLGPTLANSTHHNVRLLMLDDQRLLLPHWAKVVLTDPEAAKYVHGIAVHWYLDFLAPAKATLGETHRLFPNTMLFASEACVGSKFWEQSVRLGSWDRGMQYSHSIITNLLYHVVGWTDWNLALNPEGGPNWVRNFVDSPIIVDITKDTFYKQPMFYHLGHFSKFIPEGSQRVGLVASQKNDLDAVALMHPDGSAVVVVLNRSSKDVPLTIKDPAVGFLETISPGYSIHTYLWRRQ
Test: Glucocerebrosidase (Gcase) activation assay with 4-methylumbelliferyl-beta-D-glucopyranoside substrate, saposin C and phosphatidylserine/triton micelles, fluorescence readout
Assay type: biochemical
Outline: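 Readout is endpoint fluorescence (ex 365, em 440 nm) after glycine pH 12.5 stop of a 15-min room-temperature reaction. Enzyme mix: GCase 10 nM plus saposin C 100 nM in 0.37 mol % PS/0.32 mM triton micelles, pH 4.7, compound pre-incubated 30 min; substrate solution 2 mM before 1:1 mixing. Tested at 1.0/0.1 μM, then 3-fold, 8-point series up to 5 μM.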

Compound | Percent Gcase Activation, 0.1 μM Test Compound | Percent Gcase Activation, 1 μM Test Compound
Cc1cc(N2CC(C(C)C)OC2=O)nc2c(C(=O)N[C@@H](C3CC3)C(F)(F)F)cnn12 (some centres unmarked) [III-318] | ** (Gcase activation in the range of 10% up to 20%) | +++ (Gcase activation greater than 60%)
Cc1cc(N2CC(C)(C)NC2=O)nc2c(C(=O)NC(C3CC3)C(F)(F)F)cnn12 (centres unmarked) [III-319] | ** (Gcase activation in the range of 10% up to 20%) | +++ (Gcase activation greater than 60%)
Cc1cc(N2CC(C(C)C)NC2=O)nc2c(C(=O)NC(C3CC3)C(F)(F)F)cnn12 (centres unmarked) [III-320] | *** (greater than 20% Gcase activation) | +++ (Gcase activation greater than 60%)
Cc1nc2cc(-c3cc(C)n4ncc(C(=O)N[C@@H](C)C5CC5)c4n3)ccc2o1 [III-321] | *** (greater than 20% Gcase activation) | +++ (Gcase activation greater than 60%)
Cc1cc(C2=CC(C)(C)CCO2)nc2c(C(=O)NC(C3CC3)C(F)(F)F)cnn12 (centres unmarked) [III-322] | *** (greater than 20% Gcase activation) | +++ (Gcase activation greater than 60%)
Cc1cc(C2CC(C)(C)CCO2)nc2c(C(=O)NC(C3CC3)C(F)(F)F)cnn12 (centres unmarked) [III-323] | ** (Gcase activation in the range of 10% up to 20%) | +++ (Gcase activation greater than 60%)
Cc1cc(-c2cccnn2)nc2c(C(=O)NC(C3CC3)C(F)(F)F)cnn12 (centres unmarked) [III-324] | * (less than 10% Gcase activation) | + (less than 30% Gcase activation)
Cc1cc(-c2ccnnc2)nc2c(C(=O)NC(C3CC3)C(F)(F)F)cnn12 (centres unmarked) [III-325] | * (less than 10% Gcase activation) | + (less than 30% Gcase activation)
Cc1cc(N2CCN(C(C)C)C2=O)nc2c(C(=O)N[C@@H](C3CC3)C(F)(F)F)cnn12 [III-326] | * (less than 10% Gcase activation) | +++ (Gcase activation greater than 60%)
Cc1cc(N2CCN(C(C)C)C2=O)nc2c(C(=O)N[C@H](C3CC3)C(F)(F)F)cnn12 [III-327] | ** (Gcase activation in the range of 10% up to 20%) | +++ (Gcase activation greater than 60%)
Cc1cc(N2CCC(C)(C)C2=O)nc2c(C(=O)NC(C3CC3)C(F)(F)F)cnn12 (centres unmarked) [III-328] | ** (Gcase activation in the range of 10% up to 20%) | +++ (Gcase activation greater than 60%)
Cc1cc(N2CCN(c3ccccc3)C2=O)nc2c(C(=O)N[C@H](C)C(F)(F)F)cnn12 [III-329] | * (less than 10% Gcase activation) | + (less than 30% Gcase activation)
Cc1cc(N2CCN(c3ccccc3)C2=O)nc2c(C(=O)N[C@H](C3CC3)C(F)(F)F)cnn12 [III-330] | ** (Gcase activation in the range of 10% up to 20%) | ++ (Gcase activation in the range of 30% up to 60%)
Cc1nc(-c2cc(C)n3ncc(C(=O)N[C@H](C4CC4)C(F)(F)F)c3n2)oc1C [III-331] | *** (greater than 20% Gcase activation) | +++ (Gcase activation greater than 60%)
Cc1oc(C(C)C)nc1-c1cc(C)n2ncc(C(=O)N[C@H](C3CC3)C(F)(F)F)c2n1 [III-332] | *** (greater than 20% Gcase activation) | +++ (Gcase activation greater than 60%)
Cc1nc(-c2cc(C)n3ncc(C(=O)N[C@H](C4CC4)C(F)(F)F)c3n2)c(C)o1 [III-333] | *** (greater than 20% Gcase activation) | +++ (Gcase activation greater than 60%)
Cc1cc(-c2ccc(F)o2)nc2c(C(=O)N[C@H](C)C(F)(F)F)cnn12 [III-334] | *** (greater than 20% Gcase activation) | +++ (Gcase activation greater than 60%)
Cc1cc(-c2ccoc2F)nc2c(C(=O)N[C@H](C)C(F)(F)F)cnn12 [III-335] | *** (greater than 20% Gcase activation) | +++ (Gcase activation greater than 60%)
Cc1cocc1-c1cc(C)n2ncc(C(=O)N[C@H](C)C(F)(F)F)c2n1 [III-336] | *** (greater than 20% Gcase activation) | +++ (Gcase activation greater than 60%)
Cc1cc(-c2ccoc2)nc2c(C(=O)N[C@H](C)C(F)(F)F)cnn12 [III-337] | *** (greater than 20% Gcase activation) | +++ (Gcase activation greater than 60%)
Cc1cc(-c2cc(C)n3ncc(C(=O)N[C@H](C)C(F)(F)F)c3n2)co1 [III-338] | *** (greater than 20% Gcase activation) | +++ (Gcase activation greater than 60%)
Cc1cc(-c2cc(C)n3ncc(C(=O)N[C@@H](C)C(F)(F)F)c3n2)co1 [III-339] | *** (greater than 20% Gcase activation) | +++ (Gcase activation greater than 60%)
Cc1nc(-c2cc(C)n3ncc(C(=O)N[C@H](C)C(F)(F)F)c3n2)oc1C [III-345] | ** (Gcase activation in the range of 10% up to 20%) | +++ (Gcase activation greater than 60%)
Cc1cc(-c2cc(C)n3ncc(C(=O)N[C@@H](C)C4CC4)c3n2)sn1 [III-346] | ** (Gcase activation in the range of 10% up to 20%) | +++ (Gcase activation greater than 60%)
Cc1cc(-c2cc(F)ccc2C#N)nc2c(C(=O)N[C@H](C)C(F)(F)F)cnn12 [III-349] | *** (greater than 20% Gcase activation) | ++ (Gcase activation in the range of 30% up to 60%)
Cc1cc(-c2cc(C#N)ccc2F)nc2c(C(=O)N[C@H](C)C(F)(F)F)cnn12 [III-351] | ** (Gcase activation in the range of 10% up to 20%) | +++ (Gcase activation greater than 60%)
Cc1cc(-c2cc(C#N)ccc2F)nc2c(C(=O)N[C@@H](C)C(F)(F)F)cnn12 [III-352] | ** (Gcase activation in the range of 10% up to 20%) | +++ (Gcase activation greater than 60%)

Second part, the molecule after the results:

Percent Gcase Activation, 0.1 μM Test Compound | Percent Gcase Activation, 1 μM Test Compound | Compound
*** (greater than 20% Gcase activation) | +++ (Gcase activation greater than 60%) | Cc1occc1-c1cc(C)n2ncc(C(=O)N[C@H](C)C(F)(F)F)c2n1 [III-340]
*** (greater than 20% Gcase activation) | +++ (Gcase activation greater than 60%) | Cc1cc(-c2cc(C)n3ncc(C(=O)N[C@H](C4CC4)C(F)(F)F)c3n2)no1 [III-341]
*** (greater than 20% Gcase activation) | +++ (Gcase activation greater than 60%) | Cc1conc1-c1cc(C)n2ncc(C(=O)N[C@H](C3CC3)C(F)(F)F)c2n1 [III-342]
*** (greater than 20% Gcase activation) | +++ (Gcase activation greater than 60%) | Cc1cc(-c2cc(C)n3ncc(C(=O)N[C@H](C4CC4)C(F)(F)F)c3n2)on1 [III-343]
*** (greater than 20% Gcase activation) | +++ (Gcase activation greater than 60%) | Cc1cnoc1-c1cc(C)n2ncc(C(=O)N[C@H](C3CC3)C(F)(F)F)c2n1 [III-344]
*** (greater than 20% Gcase activation) | +++ (Gcase activation greater than 60%) | Cc1cc(C#N)c(-c2cc(C)n3ncc(C(=O)N[C@H](C)C(F)(F)F)c3n2)s1 [III-347]
*** (greater than 20% Gcase activation) | +++ (Gcase activation greater than 60%) | Cc1cc(C#N)c(-c2cc(C)n3ncc(C(=O)N[C@@H](C)C(F)(F)F)c3n2)s1 [III-348]
*** (greater than 20% Gcase activation) | +++ (Gcase activation greater than 60%) | Cc1cc(-c2cc(F)ccc2C#N)nc2c(C(=O)N[C@@H](C)C(F)(F)F)cnn12 [III-350]
*** (greater than 20% Gcase activation) | +++ (Gcase activation greater than 60%) | Cc1cc(-c2cnccc2C(F)(F)F)nc2c(C(=O)N[C@H](C3CC3)C(F)(F)F)cnn12 [III-353]
*** (greater than 20% Gcase activation) | +++ (Gcase activation greater than 60%) | Cc1cc(-c2cnccc2C(F)(F)F)nc2c(C(=O)N[C@@H](C3CC3)C(F)(F)F)cnn12 [III-354]
